# Measurements taken from ChEMBL document CHEMBL2150993, “Substituted thiazoles VII. Synthesis and antitumor activity of certain 2-(substituted amino)-4-phenyl-1,3-thiazole analogs” (2012).
# Columns and labels:
# Format in all cases: functional
# Settings in all cases: at 10 µM
# [1] = tested on: CCRF-CEM; assay: Growth inhibition of human CCRF-CEM cells after 48 hrs by cell counting analysis
# [2] = tested on: HL-60; assay: Growth inhibition of human HL60 cells after 48 hrs by cell counting analysis
# [3] = tested on: K562; assay: Growth inhibition of human K562 cells after 48 hrs by cell counting analysis
# [4] = tested on: RPMI-8226; assay: Growth inhibition of human RPMI8226 cells after 48 hrs by cell counting analysis
# [5] = tested on: SR; assay: Growth inhibition of human SR cells after 48 hrs by cell counting analysis
# [6] = tested on: A549; assay: Growth inhibition of human A549 cells after 48 hrs by cell counting analysis
# [7] = tested on: EKVX; assay: Growth inhibition of human EKVX cells after 48 hrs by cell counting analysis
# [8] = tested on: HOP-62; assay: Growth inhibition of human HOP62 cells after 48 hrs by cell counting analysis
# [9] = tested on: HOP-92; assay: Growth inhibition of human HOP92 cells after 48 hrs by cell counting analysis
# [10] = tested on: NCI-H226; assay: Growth inhibition of human NCI-H226 cells after 48 hrs by cell counting analysis
# [11] = tested on: NCI-H23; assay: Growth inhibition of human NCI-H23 cells after 48 hrs by cell counting analysis
# [12] = Growth inhibition of human NCI-322M cells after 48 hrs by cell counting analysis
# [13] = tested on: NCI-H522; assay: Growth inhibition of human NCI-H522 cells after 48 hrs by cell counting analysis
# [14] = tested on: HCC 2998; assay: Growth inhibition of human HCC2998 cells after 48 hrs by cell counting analysis
# [15] = tested on: HCT-15; assay: Growth inhibition of human HCT15 cells after 48 hrs by cell counting analysis
# [16] = tested on: HT-29; assay: Growth inhibition of human HT-29 cells after 48 hrs by cell counting analysis
# [17] = tested on: KM12; assay: Growth inhibition of human KM12 cells after 48 hrs by cell counting analysis
# [18] = tested on: SW-620; assay: Growth inhibition of human SW620 cells after 48 hrs by cell counting analysis
# [19] = tested on: SF-268; assay: Growth inhibition of human SF268 cells after 48 hrs by cell counting analysis
# [20] = tested on: SF-295; assay: Growth inhibition of human SF295 cells after 48 hrs by cell counting analysis
# [21] = tested on: SF-539; assay: Growth inhibition of human SF539 cells after 48 hrs by cell counting analysis
# [22] = tested on: SNB-19; assay: Growth inhibition of human SNB19 cells after 48 hrs by cell counting analysis
# [23] = tested on: SNB-75; assay: Growth inhibition of human SNB75 cells after 48 hrs by cell counting analysis
# [24] = tested on: U-251; assay: Growth inhibition of human U251 cells after 48 hrs by cell counting analysis
# [25] = tested on: LOX IMVI; assay: Growth inhibition of human LOXIMVI cells after 48 hrs by cell counting analysis
# [26] = tested on: Malme-3M; assay: Growth inhibition of human MALME-3M cells after 48 hrs by cell counting analysis
# [27] = tested on: M14; assay: Growth inhibition of human M14 cells after 48 hrs by cell counting analysis
# [28] = tested on: MDA-MB-435; assay: Growth inhibition of human MDA-MB-435 cells after 48 hrs by cell counting analysis
# [29] = tested on: SK-MEL-2; assay: Growth inhibition of human SK-MEL-2 cells after 48 hrs by cell counting analysis
# [30] = tested on: SK-MEL-28; assay: Growth inhibition of human SK-MEL-28 cells after 48 hrs by cell counting analysis
# [31] = tested on: SK-MEL-5; assay: Growth inhibition of human SK-MEL-5 cells after 48 hrs by cell counting analysis
# [32] = tested on: UACC-257; assay: Growth inhibition of human UACC257 cells after 48 hrs by cell counting analysis
# [33] = tested on: UACC-62; assay: Growth inhibition of human UACC62 cells after 48 hrs by cell counting analysis
# [34] = tested on: IGROV-1; assay: Growth inhibition of human IGROV1 cells after 48 hrs by cell counting analysis
# [35] = tested on: OVCAR-3; assay: Growth inhibition of human OVCAR3 cells after 48 hrs by cell counting analysis
# [36] = tested on: OVCAR-4; assay: Growth inhibition of human OVCAR4 cells after 48 hrs by cell counting analysis
# [37] = tested on: OVCAR-5; assay: Growth inhibition of human OVCAR5 cells after 48 hrs by cell counting analysis
# [38] = tested on: OVCAR-8; assay: Growth inhibition of human OVCAR8 cells after 48 hrs by cell counting analysis
# [39] = Growth inhibition of human NCI-ADR-RES cells after 48 hrs by cell counting analysis
# [40] = tested on: SK-OV-3; assay: Growth inhibition of human SKOV3 cells after 48 hrs by cell counting analysis
# [41] = tested on: ACHN; assay: Growth inhibition of human ACHN cells after 48 hrs by cell counting analysis
# [42] = tested on: CAKI-1; assay: Growth inhibition of human Caki1 cells after 48 hrs by cell counting analysis
# [43] = tested on: RXF 393; assay: Growth inhibition of human RXF393 cells after 48 hrs by cell counting analysis
# [44] = tested on: SN12C; assay: Growth inhibition of human SN12C cells after 48 hrs by cell counting analysis
# [45] = tested on: TK-10; assay: Growth inhibition of human TK10 cells after 48 hrs by cell counting analysis
# [46] = tested on: UO-31; assay: Growth inhibition of human UO31 cells after 48 hrs by cell counting analysis
# [47] = tested on: PC-3; assay: Growth inhibition of human PC3 cells after 48 hrs by cell counting analysis
# [48] = tested on: MCF7; assay: Growth inhibition of human MCF7 cells after 48 hrs by cell counting analysis
# [49] = tested on: MDA-MB-231; assay: Growth inhibition of human MDA-MB-231 cells after 48 hrs by cell counting analysis
# [50] = tested on: BT-549; assay: Growth inhibition of human BT549 cells after 48 hrs by cell counting analysis
# [51] = tested on: T47D; assay: Growth inhibition of human T47D cells after 48 hrs by cell counting analysis
# [52] = tested on: MDA-MB-468; assay: Growth inhibition of human MDA-MB-468 cells after 48 hrs by cell counting analysis
# [53] = tested on: MOLT-4; assay: Growth inhibition of human MOLT4 cells after 48 hrs by cell counting analysis
# [54] = tested on: HCT-116; assay: Growth inhibition of human HCT116 cells after 48 hrs by cell counting analysis
compound,measurement,setting,value
O=C(CN1CCN(c2ccccc2)CC1)Nc1nc(-c2ccc(Cl)cc2)cs1,growth inhibition (GI),[1],<10%
same,growth inhibition (GI),[2],<10%
same,growth inhibition (GI),[3],<10%
same,growth inhibition (GI),[4],<10%
same,growth inhibition (GI),[5],<10%
same,growth inhibition (GI),[6],<10%
same,growth inhibition (GI),[7],<10%
same,growth inhibition (GI),[8],12.7%
same,growth inhibition (GI),[9],60.2%
same,growth inhibition (GI),[10],<10%
same,growth inhibition (GI),[11],<10%
same,growth inhibition (GI),[12],<10%
same,growth inhibition (GI),[13],<10%
same,growth inhibition (GI),[14],<10%
same,growth inhibition (GI),[15],<10%
same,growth inhibition (GI),[16],<10%
same,growth inhibition (GI),[17],<10%
same,growth inhibition (GI),[18],<10%
same,growth inhibition (GI),[19],<10%
same,growth inhibition (GI),[20],<10%
same,growth inhibition (GI),[21],<10%
same,growth inhibition (GI),[22],<10%
same,growth inhibition (GI),[23],<10%
same,growth inhibition (GI),[24],<10%
same,growth inhibition (GI),[25],<10%
same,growth inhibition (GI),[26],<10%
same,growth inhibition (GI),[27],<10%
same,growth inhibition (GI),[28],<10%
same,growth inhibition (GI),[29],<10%
same,growth inhibition (GI),[30],<10%
same,growth inhibition (GI),[31],11.7%
same,growth inhibition (GI),[32],<10%
same,growth inhibition (GI),[33],20.3%
same,growth inhibition (GI),[34],10.4%
same,growth inhibition (GI),[35],<10%
same,growth inhibition (GI),[36],<10%
same,growth inhibition (GI),[37],<10%
same,growth inhibition (GI),[38],<10%
same,growth inhibition (GI),[39],<10%
same,growth inhibition (GI),[40],<10%
same,growth inhibition (GI),[41],<10%
same,growth inhibition (GI),[42],<10%
same,growth inhibition (GI),[43],<10%
same,growth inhibition (GI),[44],<10%
same,growth inhibition (GI),[45],<10%
same,growth inhibition (GI),[46],34.4%
same,growth inhibition (GI),[47],21.1%
same,growth inhibition (GI),[48],<10%
same,growth inhibition (GI),[49],<10%
same,growth inhibition (GI),[50],<10%
same,growth inhibition (GI),[51],19%
same,growth inhibition (GI),[52],<10%
same,growth inhibition (GI),[53],<10%
same,growth inhibition (GI),[54],16.4%
